Test results as given in patent US20230279016A1, “Tetrahydropyrazolopyrimidines and Related Analogs for Inhibiting YAP/TAZ-TEAD” (THE KATHOLIEKE UNIVERSITEIT LEUVEN, priority 2021, published 2023).

System: YAP/TAZ-TEAD transcription
Assay: Reporter gene assay for measuring the inhibition of YAP/TAZ-TEAD transcription (TEAD-responsive element luciferase reporter in Hek293T cells)
Type: cell-based
Conditions: Hek293T cells transiently transfected with TEAD-responsive element luciferase reporter, 24 hours incubation
Protocol: Hek293T cells are cultured in DMEM supplemented with 10% fetal bovine serum, Sodium pyruvate, Sodium bicarbonate, L-glutamine. The cells are harvested and transiently transfected with TEAD-responsive element luciferase reporter. Transfected cells are plated in 384-wells plate containing pre-diluted compounds. After 24 hours incubation at 37° C./5%CO2, assay plates were cooled down to RT and levelled to an equal volume per well, prior to the addition of 25 uL luciferase substrate SteadyLite (Perkin Elmer)/well. The plate was shaken for 10 min at 600 rpm, centrifuged for 1min at 500 rpm and measured with an Envision reader (PerkinElmer). The amount of relative light units produced by the TEAD reporter is used to calculated percent of inhibition.
The percent of reporter inhibition was calculated in the presence of a positive control inhibitor (100% inhibition) versus a condition with the presence of the vehicle basal activity of the reporter (0% inhibition). The ability of a test compound to inhibit this activity was determined as:
Percentage inhibition=[1-((RLU determined in the presence of vehicle—RLU determined for sample with test compound present) divided by (RLU determined in the presence of vehicle — RLU determined for sample with positive control inhibitor))] * 100
The activities of the example compounds tested are depicted in the table below. The activity ranges A, B and C refer to EC50 values in the reporter gene assay as described as follows: “A”: EC50 <1 μM; “B” : 1 μM≤EC50≤20 μM and “C” : EC50>20 μM, NT=not tested.

SMILES	EC50
C=CC(=O)NCC1CN(c2ccc(C(F)(F)F)cc2)c2cc(C)nn2C1 (single isomer, unassigned) [Cpd. No. 029-En1, (R)- or (S)-N-((2-methyl-4-(4-(trifluoromethyl)phenyl)-4,5,6,7-tetrahydropyrazolo[1,5-a]pyrimidin-6-yl)methyl)acrylamide]	< 1 µM
C=CC(=O)NCC1CN(c2ccc(C(F)(F)F)cc2)c2cc(C)nn2C1 (single isomer, unassigned) [Cpd. No. 029-En2, (R)- or (S)-N-((2-methyl-4-(4-(trifluoromethyl)phenyl)-4,5,6,7-tetrahydropyrazolo[1,5-a]pyrimidin-6-yl)methyl)acrylamide]	< 1 µM
C=CC(=O)NCC1CN(c2ccc(OC(F)(F)F)cc2)c2cc(C)nn2C1 (single isomer, unassigned) [Cpd. No. 030-En1, (R)- or (S)-N-((2-methyl-4-(4-(trifluoromethoxy)phenyl)-4,5,6,7-tetrahydropyrazolo[1,5-a]pyrimidin-6-yl)methyl)acrylamide]	< 1 µM
C=CC(=O)NCC1CN(c2ccc(OC(F)(F)F)cc2)c2cc(C)nn2C1 (single isomer, unassigned) [Cpd. No. 030-En2, (R)- or (S)-N-((2-methyl-4-(4-(trifluoromethoxy)phenyl)-4,5,6,7-tetrahydropyrazolo[1,5-a]pyrimidin-6-yl)methyl)acrylamide]	< 1 µM
C=CC(=O)NCC1CN(c2ccc(C(F)(F)F)cc2)c2cc(C3CC3)nn2C1 (single isomer, unassigned) [Cpd. No. 031-En1, (R)- or (S)-N-((2-cyclopropyl-4-(4-(trifluoromethyl)phenyl)-4,5,6,7-tetrahydropyrazolo[1,5-a]pyrimidin-6-yl)methyl)acrylamide]	< 1 µM
C=CC(=O)NCC1CN(c2ccc(C(F)(F)F)cc2)c2cc(C3CC3)nn2C1 (single isomer, unassigned) [Cpd. No. 031-En2, (R)- or (S)-N-((2-cyclopropyl-4-(4-(trifluoromethyl)phenyl)-4,5,6,7-tetrahydropyrazolo[1,5-a]pyrimidin-6-yl)methyl)acrylamide]	< 1 µM
C=CC(=O)NCC1CN(c2ccc(C(F)(F)F)cc2)c2cc(CC3CC3)nn2C1 (single isomer, unassigned) [Cpd. No. 032-En1, (R)- or (S)-N-((2-(cyclopropylmethyl)-4-(4-(trifluoromethyl)phenyl)-4,5,6,7-tetrahydropyrazolo[1,5-a]pyrimidin-6-yl)methyl)acrylamide]	< 1 µM
C=CC(=O)NCC1CN(c2ccc(C(F)(F)F)cc2)c2cc(CC3CC3)nn2C1 (single isomer, unassigned) [Cpd. No. 032-En2, (R)- or (S)-N-((2-(cyclopropylmethyl)-4-(4-(trifluoromethyl)phenyl)-4,5,6,7-tetrahydropyrazolo[1,5-a]pyrimidin-6-yl)methyl)acrylamide]	< 1 µM
C=CC(=O)NCC1CN(c2ccc(C(F)(F)F)cc2)c2cc(C#N)nn2C1 (single isomer, unassigned) [Cpd. No. 033-En1, (R)- or (S)-N-((2-cyano-4-(4-(trifluoromethyl)phenyl)-4,5,6,7-tetrahydropyrazolo[1,5-a]pyrimidin-6-yl)methyl)acrylamide]	1 to 20 µM
C=CC(=O)NCC1CN(c2ccc(C(F)(F)F)cc2)c2cc(C#N)nn2C1 (single isomer, unassigned) [Cpd. No. 033-En2, (R)- or (S)-N-((2-cyano-4-(4-(trifluoromethyl)phenyl)-4,5,6,7-tetrahydropyrazolo[1,5-a]pyrimidin-6-yl)methyl)acrylamide]	< 1 µM
C=CC(=O)NCC1CN(c2ccc(C(F)(F)F)cc2)c2cc(C(F)(F)F)nn2C1 (single isomer, unassigned) [Cpd. No. 034-En1, (R)- or (S)-N-((2-(trifluoromethyl)-4-(4-(trifluoromethyl)phenyl)-4,5,6,7-tetrahydropyrazolo[1,5-a]pyrimidin-6-yl)methyl)acrylamide]	< 1 µM
C=CC(=O)NCC1CN(c2ccc(C(F)(F)F)cc2)c2cc(C(F)(F)F)nn2C1 (single isomer, unassigned) [Cpd. No. 034-En2, (R)- or (S)-N-((2-(trifluoromethyl)-4-(4-(trifluoromethyl)phenyl)-4,5,6,7-tetrahydropyrazolo[1,5-a]pyrimidin-6-yl)methyl)acrylamide]	< 1 µM
C=CC(=O)NCC1CN(C(=O)C2CCCCC2)c2ccnn2C1 (single isomer, unassigned) [Cpd. No. 046-En1, (R)- or (S)-N-((4-(cyclohexanecarbonyl)-4,5,6,7-tetrahydropyrazolo[1,5-a]pyrimidin-6-yl)methyl)acrylamide]	1 to 20 µM
C=CC(=O)NCC1CN(C(=O)C2CCCCC2)c2ccnn2C1 (single isomer, unassigned) [Cpd. No. 046-En2, (R)- or (S)-N-((4-(cyclohexanecarbonyl)-4,5,6,7-tetrahydropyrazolo[1,5-a]pyrimidin-6-yl)methyl)acrylamide]	1 to 20 µM
C=CC(=O)NC1CN(c2ccc(C(F)(F)F)cc2)c2ccnn2C1 (single isomer, unassigned) [Cpd. No. 061-En1, (R)- or (S)-N-(4-(4-(trifluoromethyl)phenyl)-4,5,6,7-tetrahydropyrazolo[1,5-a]pyrimidin-6-yl)acrylamide]	< 1 µM
C=CC(=O)NC1CN(c2ccc(C(F)(F)F)cc2)c2ccnn2C1 (single isomer, unassigned) [Cpd. No. 061-En2, (R)- or (S)-N-(4-(4-(trifluoromethyl)phenyl)-4,5,6,7-tetrahydropyrazolo[1,5-a]pyrimidin-6-yl)acrylamide]	< 1 µM
C=CC(=O)NC1CN(c2ccc(C(F)(F)F)cc2F)c2ccnn2C1 (single isomer, unassigned) [Cpd. No. 065-En2, (R)- or (S)-N-(4-(2-fluoro-4-(trifluoromethyl)phenyl)-4,5,6,7-tetrahydropyrazolo[1,5-a]pyrimidin-6-yl)acrylamide]	< 1 µM
C=CC(=O)N1CCC2(C1)CN(c1ccc(C(F)(F)F)cc1)c1ccnn1C2 (single isomer, unassigned) [Cpd. No. 088-En1, (R)- or (S)-1-(4-(4-(trifluoromethyl)phenyl)-4,5-dihydro-7H-spiro[pyrazolo[1,5-a]pyrimidine-6,3′-pyrrolidin]-1′-yl)prop-2-en-1-one]	< 1 µM
C=CC(=O)N1CCC2(C1)CN(c1ccc(C(F)(F)F)cc1)c1ccnn1C2 (single isomer, unassigned) [Cpd. No. 088-En2, (R)- or (S)-1-(4-(4-(trifluoromethyl)phenyl)-4,5-dihydro-7H-spiro[pyrazolo[1,5-a]pyrimidine-6,3′-pyrrolidin]-1′-yl)prop-2-en-1-one]	< 1 µM
CS(=O)(=O)N1CCC2(CN(c3ccc(C(F)(F)F)cc3)c3ccnn3C2)C1=O (single isomer, unassigned) [Cpd. No. 089-En2, (R)- or (S)-1′-(methylsulfonyl)-4-(4-(trifluoromethyl)phenyl)-4,5-dihydro-7H-spiro[pyrazolo[1,5-a]pyrimidine-6,3′-pyrrolidin]-2′-one]	> 20 µM
CN1CCC2(CN(c3ccc(C(F)(F)F)cc3)c3ccnn3C2)C1=O (single isomer, unassigned) [Cpd. No. 090-En2, (R)- or (S)-1′-methyl-4-(4-(trifluoromethyl)phenyl)-4,5-dihydro-7H-spiro[pyrazolo[1,5-a]pyrimidine-6,3′-pyrrolidin]-2′-one]	> 20 µM
C=CC(=O)NCC1CN(c2ccc(C(F)(F)F)cc2)c2cnc(C(F)(F)F)n2C1 (single isomer, unassigned) [Cpd. No. 094-En1, (R)- or (S)-N-((6-(trifluoromethyl)-1-(4-(trifluoromethyl)phenyl)-1,2,3,4-tetrahydroimidazo[1,5-a]pyrimidin-3-yl)methyl)acrylamide]	< 1 µM

Same assay, conditions: Homo sapiens, HEK-293T, 24 h, Hek293T cells transiently transfected with TEAD-responsive element luciferase reporter, 24 hours incubation

SMILES	EC50
C=CC(=O)NCC1CN(c2ccc(OC(F)(F)F)cc2)c2cc(C(F)(F)F)nn2C1 (single isomer, unassigned) [Cpd. No. 035-En1, (R)- or (S)-N-((4-(4-(trifluoromethoxy)phenyl)-2-(trifluoromethyl)-4,5,6,7-tetrahydropyrazolo[1,5-a]pyrimidin-6-yl)methyl)acrylamide]	< 1 µM
C=CC(=O)NCC1CN(Cc2ccccc2)c2ccnn2C1 (single isomer, unassigned) [Cpd. No. 049-En2, (R)- or (S)-N-((4-benzyl-4,5,6,7-tetrahydropyrazolo[1,5-a]pyrimidin-6-yl)methyl)acrylamide]	< 1 µM
CS(=O)(=O)N1CCC2(CN(c3ccc(C(F)(F)F)cc3)c3ccnn3C2)C1=O (single isomer, unassigned) [Cpd. No. 089-En1, (R)- or (S)-1′-(methylsulfonyl)-4-(4-(trifluoromethyl)phenyl)-4,5-dihydro-7H-spiro[pyrazolo[1,5-a]pyrimidine-6,3′-pyrrolidin]-2′-one]	> 20 µM
CN1CCC2(CN(c3ccc(C(F)(F)F)cc3)c3ccnn3C2)C1=O (single isomer, unassigned) [Cpd. No. 090-En1, (R)- or (S)-1′-methyl-4-(4-(trifluoromethyl)phenyl)-4,5-dihydro-7H-spiro[pyrazolo[1,5-a]pyrimidine-6,3′-pyrrolidin]-2′-one]	> 20 µM
